“Also recorded” adds a separate entry of the source.
Tests used:
[1] = test system: IMQ-induced psoriasis-like skin inflammation; test: Mouse model of IMQ-induced psoriasis-like skin inflammation; type: in vivo, BALB/c mice; conditions: topical Clobetasol 0.02%
Description: All experimental procedures were approved by the Mackay Memorial Hospital Animal Care and Uses Committee and conducted according to national animal welfare regulations. Psoriasis-like skin inflammation was created by treating mouse skin with Imiquimod (IMQ) in accordance with the procedures described by van der Fits et al (J Immunol. (2009), 182, 5836-5845). Accordingly, each BALB/c mice (8 weeks old) received a daily topical dose of 62.5 mg of commercially available IMQ cream (5%) on the shaved back and the right ear for 6 consecutive days; whereas the control mice (normal group) were treated with a control cream. For treatment, 7-mer analogue was mixed with IMQ cream to a concentration 100 μM.
Keratinocyte proliferation was determined by 5-bromo-2′-deoxyuridine (BrdU) incorporation. BrdU (Sigma-Aldrich) was reconstituted in DMSO as a stock solution of 80 mM. 10 μl of BrdU mixed with 90 μl of PBS was intraperitoneally injected into each mouse for 24 hr prior to euthanasia. Back skin was fixed overnight in 4% paraformaldehyde and embedded in paraffin for immunohistochemistry.
In this example, the efficacy of the present synthetic peptides of Example 1 on IMQ-induced psoriasis-like skin inflammation was investigated. To this purpose, animals (8-week-old mice) were given a daily topical dose of IMQ cream on the shaved back for six consecutive days, so as to induce psoriasis-like skin inflammation and desquamation (FIG. 1; left panel).
Psoriasis is a disease resulted from abnormal keratinocyte proliferation, thus the effects of the present synthetic peptides on the proliferation of keratinocytes were also monitored in accordance with procedures described in the section of “Materials and Methods”. Results are illustrated in FIG. 2.

in vitro = type: cell-based, murine; conditions: mouse
[2] = test system: Raw264.7 macrophage cells; test: in vitro; type: cell-based, murine; conditions: Example 1 results

Structure (SMILES)	viability at 24 h, 20 μM (in vitro; Raw264.7 cell viability)	bioactivity / inhibitory activity relative to 7-mer (in words) [2]	other results
C[C@H]1C[C@H]2[C@@H]3CCC4=CC(=O)C=C[C@]4(C)[C@@]3(F)[C@@H](O)C[C@]2(C)[C@@]1(O)C(=O)CCl [Clobetasol, reference compound]			desquamation formation ([1]; FIG. 1): ameliorated desquamation formation; skin atrophy ([1]; entire back of test animals): caused skin atrophy
CC(=O)N[C@@H](CC(=O)O)C(=O)N[C@@H](C)C(=O)N[C@@H](Cc1ccc(O)cc1)C(=O)N[C@@H](CCCNC(=N)N)C(=O)N[C@H](C(=O)N[C@@H](CCCNC(=N)N)C(=O)N[C@@H](CO)C(N)=O)C(C)C [7-mer La, NH2-Asp-Ala-Tyr-Arg-Val-Arg-Ser-COOH]	57.4 ± 1.71%	could sustain the inhibitory activity	
CC(=O)N[C@@H](CC(=O)O)C(=O)N[C@@H](CC(C)C)C(=O)N[C@H](Cc1ccc(O)cc1)C(=O)N[C@@H](CCCNC(=N)N)C(=O)N[C@H](C(=O)N[C@@H](CCCNC(=N)N)C(=O)N[C@@H](CO)C(N)=O)C(C)C [7-mer DY, NH2-Asp-Leu-(D-Tyr)-Arg-Val-Arg-Ser-COOH]		lose its biological activity	viability at 24 h, 20 μM (in vitro; Rar264.7 cell viability): 107.5 ± 0.63%
CC(=O)N[C@@H](Cc1ccccc1)C(=O)N[C@@H](CC(C)C)C(=O)N[C@@H](Cc1ccc(O)cc1)C(=O)N[C@@H](CCCNC(=N)N)C(=O)N[C@H](C(=O)N[C@@H](CCCNC(=N)N)C(=O)N[C@@H](CO)C(N)=O)C(C)C [7-mer (D→F), NH2-Phe-Leu-Tyr-Arg-Val-Arg-Ser-COOH]	61.9 ± 4.91%	could sustain 7-mer bioactivity, only partly; also recorded: relatively the same bioactivity that is similar to the 7-mer	
CC(=O)N[C@@H](CC(=O)O)C(=O)N[C@@H](CC(C)C)C(=O)N[C@@H](Cc1ccc(O)cc1)C(=O)N[C@@H](CCCNC(=N)N)C(=O)N[C@@H](CC(C)C)C(=O)N[C@@H](CCCNC(=N)N)C(=O)N[C@@H](CO)C(N)=O [7-mer (V→L), NH2-Asp-Leu-Tyr-Arg-Leu-Arg-Ser-COOH]	61.1 ± 3.96%	could sustain 7-mer bioactivity, only partly; also recorded: relatively the same bioactivity that is similar to the 7-mer	
CC(=O)N[C@@H](C)C(=O)N[C@@H](CC(C)C)C(=O)N[C@@H](Cc1ccc(O)cc1)C(=O)N[C@@H](CCCNC(=N)N)C(=O)N[C@H](C(=O)N[C@@H](CCCNC(=N)N)C(=O)N[C@@H](CO)C(N)=O)C(C)C [7-mer Da, NH2-Ala-Leu-Tyr-Arg-Val-Arg-Ser-COOH]	52.9 ± 0.84%	could sustain the inhibitory activity	
CC(=O)N[C@@H](CC(=O)O)C(=O)N[C@@H](CC(C)C)C(=O)N[C@@H](Cc1ccc(O)cc1)C(=O)N[C@@H](CCCNC(=N)N)C(=O)N[C@H](C(=O)N[C@H](CCCNC(=N)N)C(=O)N[C@@H](CO)C(N)=O)C(C)C [7-mer DR2, NH2-Asp-(D-Leu)-Tyr-Arg-Val-(D-Arg)-Ser-COOH]		lose its biological activity	viability at 24 h, 20 μM (in vitro; Rar264.7 cell viability): 103 ± 2.51%
CC(=O)N[C@@H](CC(C)C)C(=O)N[C@@H](CC(C)C)C(=O)N[C@@H](Cc1ccc(O)cc1)C(=O)N[C@@H](CCCNC(=N)N)C(=O)N[C@H](C(=O)N[C@@H](CCCNC(=N)N)C(=O)N[C@@H](CO)C(N)=O)C(C)C [7-mer (D→L), NH2-Leu-Leu-Tyr-Arg-Val-Arg-Ser-COOH]	57.6 ± 2.65%	could sustain 7-mer bioactivity, only partly; also recorded: relatively the same bioactivity that is similar to the 7-mer	
CC(=O)N[C@@H](CC(=O)O)C(=O)N[C@@H](CC(C)C)C(=O)N[C@@H](Cc1ccc(O)cc1)C(=O)N[C@@H](CCCCN)C(=O)N[C@H](C(=O)N1CCC[C@H]1C(=O)N[C@@H](CO)C(N)=O)C(C)C [7-mer KP, NH2-Asp-Leu-Tyr-Lys-Val-Pro-Ser-COOH]	81.2 ± 3.43%	could sustain 7-mer bioactivity, only partly	
CC[C@H](C)[C@H](NC(=O)[C@H](CCCNC(=N)N)NC(=O)[C@H](Cc1c[nH]c2ccccc12)NC(=O)[C@H](CC(C)C)NC(=O)[C@H](CC(=O)O)NC(C)=O)C(=O)N[C@@H](CCCNC(=N)N)C(=O)N[C@@H](CO)C(N)=O [7-mer WI, NH2-Asp-Leu-Trp-Arg-Ile-Arg-Ser-COOH]	77.9 ± 2.87%	could sustain 7-mer bioactivity, only partly	
CC(=O)N[C@@H](CC(=O)O)C(=O)N[C@@H](CC(C)C)C(=O)N[C@@H](Cc1ccc(O)cc1)C(=O)N[C@@H](CCCNC(=N)N)C(=O)N[C@@H](CCC(N)=O)C(=O)N[C@@H](CCCCN)C(=O)N[C@@H](CO)C(N)=O [7-mer QK, NH2-Asp-Leu-Tyr-Arg-Gln-Lys-Ser-COOH]	77.7 ± 3.02%	could sustain 7-mer bioactivity, only partly	
CSCC[C@H](NC(=O)[C@H](CCCNC(=N)N)NC(=O)[C@H](Cc1ccc(O)cc1)NC(=O)[C@H](CC(C)C)NC(=O)[C@H](CC(=O)O)NC(C)=O)C(=O)N[C@@H](CCCCN)C(=O)N[C@@H](CO)C(N)=O [7-mer MK, NH2-Asp-Leu-Tyr-Arg-Met-Lys-Ser-COOH]	81.4 ± 0.64%	could sustain 7-mer bioactivity, only partly	
CC(=O)N[C@@H](CC(=O)O)C(=O)N[C@H](CC(C)C)C(=O)N[C@@H](Cc1ccc(O)cc1)C(=O)N[C@@H](CCCNC(=N)N)C(=O)N[C@H](C(=O)N[C@@H](CCCNC(=N)N)C(=O)N[C@@H](CO)C(N)=O)C(C)C [7-mer DL, NH2-Asp-(D-Leu)-Tyr-Arg-Val-Arg-Ser-COOH]		lose its biological activity	viability at 24 h, 20 μM (in vitro; Rar264.7 cell viability): 101 ± 1.48%
CC(=O)N[C@@H](CC(=O)O)C(=O)N[C@@H](CC(C)C)C(=O)N[C@@H](Cc1ccc(O)cc1)C(=O)N[C@@H](CCCNC(=N)N)C(=O)N[C@H](C(=O)N[C@@H](CCCNC(=N)N)C(=O)N[C@H](CO)C(N)=O)C(C)C [7-mer DS, NH2-Asp-Leu-Tyr-Arg-Val-Arg-(D-Ser)-COOH]		lose its biological activity	viability at 24 h, 20 μM (in vitro; Rar264.7 cell viability): 107 ± 2.23%
CC(=O)N[C@@H](CC(N)=O)C(=O)N[C@H](C(=O)N[C@@H](Cc1ccc(O)cc1)C(=O)N[C@@H](CCCNC(=N)N)C(=O)N[C@H](C(=O)N[C@@H](CCCNC(=N)N)C(=O)N[C@@H](CO)C(N)=O)C(C)C)C(C)C [7-mer NV, NH2-Asn-Val-Tyr-Arg-Val-Arg-Ser-COOH]	74.8 ± 1.73%	could sustain 7-mer bioactivity, only partly	
CC[C@H](C)[C@H](NC(=O)[C@H](CC(=O)O)NC(C)=O)C(=O)N[C@@H](Cc1ccc(O)cc1)C(=O)N[C@@H](CCCNC(=N)N)C(=O)N[C@H](C(=O)N1CCC[C@H]1C(=O)N[C@@H](CO)C(N)=O)C(C)C [7-mer IP, NH2-Asp-Ile-Tyr-Arg-Val-Pro-Ser-COOH]	81.7 ± 4.5%	could sustain 7-mer bioactivity, only partly	
CC(=O)N[C@H](C(=O)N[C@@H](CC(C)C)C(=O)N[C@@H](Cc1ccc(O)cc1)C(=O)N[C@@H](CCCNC(=N)N)C(=O)N[C@H](C(=O)N[C@@H](CCCNC(=N)N)C(=O)N[C@@H](CO)C(N)=O)C(C)C)C(C)C [7-mer (D→V), NH2-Val-Leu-Tyr-Arg-Val-Arg-Ser-COOH]	56.8 ± 3.53%	relatively the same bioactivity that is similar to the 7-mer	bioactivity / inhibitory activity relative to 7-mer (in words) ([2]; listed as 7-mer (D→N)): could sustain 7-mer bioactivity, only partly
